Data from ChEMBL document CHEMBL1201862, “PubChem BioAssay data set” (2004).
The source made the active and inactive calls.

Legend:
[1] = blockers of HIV-1 envelope-mediated cell-cell fusion – cherry-pick, dose response (AID 652057); assay type: functional, cell-based
[2] = blockers of HIV-1 ZM109 envelope-driven cell-cell fusion – HeLa effector, CEM target cells, luciferase, cherry-pick, dose response (AID 652058); assay type: functional, cell-based;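 note: luciferase signal from HIV-1 Env mediated cell-cell fusion of effector and target cells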
[3] = off-target signal loss in HeLa-CEM21 co-culture – HeLa F-luc CTL cells, cherry-picked, counter-screen for HIV-1 Env fusion inhibitor project, dose response (AID 652040); assay type: functional, cell-based;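 note: potency for signal decrease marking cytotoxic or nonspecific inhibition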
[4] = HIV-1 AD8 envelope cell-cell fusion blockers – cherry-pick, dose response (AID 652062); assay type: functional, cell-based;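 note: luciferase signal from cell-cell fusion driven by HIV-1 clade B AD8 Env; potency is for inhibitors of fusion seen as a drop in luminescence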
[5] = viability of uninfected HEp-2 cells – cell-based, HTS, cytotoxicity control for RSV inhibitor project, dose response (AID 2410); assay type: functional; details: human respiratory syncytial virus
Large T antigen = Large T antigen (Simian virus 40, UniProt P03070); assay type: functional, Betapolyomavirus macacae;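 note: Confirmatory-stage PubChem screen for compounds that inhibit SV40 T antigen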
Chain of Large T antigen (P03070 whole entry): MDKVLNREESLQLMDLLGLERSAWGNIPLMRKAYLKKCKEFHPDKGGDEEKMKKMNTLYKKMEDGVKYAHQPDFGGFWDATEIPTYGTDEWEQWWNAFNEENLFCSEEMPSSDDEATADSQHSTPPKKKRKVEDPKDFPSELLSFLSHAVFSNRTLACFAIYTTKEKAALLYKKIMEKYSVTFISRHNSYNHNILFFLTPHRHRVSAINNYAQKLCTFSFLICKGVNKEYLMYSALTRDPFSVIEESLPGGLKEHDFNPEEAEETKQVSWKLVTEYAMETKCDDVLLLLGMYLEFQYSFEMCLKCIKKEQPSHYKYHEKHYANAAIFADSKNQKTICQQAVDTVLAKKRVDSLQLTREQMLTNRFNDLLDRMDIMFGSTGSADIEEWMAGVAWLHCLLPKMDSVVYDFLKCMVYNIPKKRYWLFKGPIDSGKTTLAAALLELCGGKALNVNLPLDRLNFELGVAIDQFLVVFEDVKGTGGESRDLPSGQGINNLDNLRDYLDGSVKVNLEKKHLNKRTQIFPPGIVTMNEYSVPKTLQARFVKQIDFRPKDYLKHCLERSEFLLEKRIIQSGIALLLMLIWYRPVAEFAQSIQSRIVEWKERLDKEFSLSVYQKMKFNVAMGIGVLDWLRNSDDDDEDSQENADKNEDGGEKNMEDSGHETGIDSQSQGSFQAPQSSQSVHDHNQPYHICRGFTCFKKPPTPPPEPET

Leucine aminopeptidase = target: T1, Leucine aminopeptidase (Plasmodium falciparum 3D7, UniProt Q8IL11); experiment: P. falciparum M17LAP inhibitors, primary screen, biochemical, fluorogenic H-Leu-NHMec substrate, 1536-well (AID 1619); assay type: functional
T1 sequence (Q8IL11 whole entry): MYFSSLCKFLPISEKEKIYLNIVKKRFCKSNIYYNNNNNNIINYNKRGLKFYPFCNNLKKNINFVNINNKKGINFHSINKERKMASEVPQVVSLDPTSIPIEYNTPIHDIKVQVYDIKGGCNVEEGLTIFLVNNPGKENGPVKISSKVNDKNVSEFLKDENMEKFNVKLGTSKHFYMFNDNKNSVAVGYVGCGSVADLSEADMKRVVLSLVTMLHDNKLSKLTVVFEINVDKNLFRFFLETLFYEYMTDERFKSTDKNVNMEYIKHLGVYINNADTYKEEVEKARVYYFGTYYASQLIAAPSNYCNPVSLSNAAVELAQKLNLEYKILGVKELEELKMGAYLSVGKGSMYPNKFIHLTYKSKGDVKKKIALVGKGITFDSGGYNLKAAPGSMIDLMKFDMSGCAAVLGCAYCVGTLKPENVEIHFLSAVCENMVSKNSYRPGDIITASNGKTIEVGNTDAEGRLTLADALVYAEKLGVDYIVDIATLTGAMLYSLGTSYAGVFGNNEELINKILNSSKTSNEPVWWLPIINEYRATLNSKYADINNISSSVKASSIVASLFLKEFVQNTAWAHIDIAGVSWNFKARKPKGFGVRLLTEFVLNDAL

Aminopeptidase N = target: T2, Aminopeptidase N (Plasmodium falciparum FcB1/Columbia, UniProt O96935); experiment: malaria alanyl aminopeptidase activity blockers – biochemical, fluorogenic H-Leu-NHMec substrate, 1536-well (AID 1445); design: species or system Plasmodium falciparum 3D7, 3D7
T2 sequence (O96935 whole entry): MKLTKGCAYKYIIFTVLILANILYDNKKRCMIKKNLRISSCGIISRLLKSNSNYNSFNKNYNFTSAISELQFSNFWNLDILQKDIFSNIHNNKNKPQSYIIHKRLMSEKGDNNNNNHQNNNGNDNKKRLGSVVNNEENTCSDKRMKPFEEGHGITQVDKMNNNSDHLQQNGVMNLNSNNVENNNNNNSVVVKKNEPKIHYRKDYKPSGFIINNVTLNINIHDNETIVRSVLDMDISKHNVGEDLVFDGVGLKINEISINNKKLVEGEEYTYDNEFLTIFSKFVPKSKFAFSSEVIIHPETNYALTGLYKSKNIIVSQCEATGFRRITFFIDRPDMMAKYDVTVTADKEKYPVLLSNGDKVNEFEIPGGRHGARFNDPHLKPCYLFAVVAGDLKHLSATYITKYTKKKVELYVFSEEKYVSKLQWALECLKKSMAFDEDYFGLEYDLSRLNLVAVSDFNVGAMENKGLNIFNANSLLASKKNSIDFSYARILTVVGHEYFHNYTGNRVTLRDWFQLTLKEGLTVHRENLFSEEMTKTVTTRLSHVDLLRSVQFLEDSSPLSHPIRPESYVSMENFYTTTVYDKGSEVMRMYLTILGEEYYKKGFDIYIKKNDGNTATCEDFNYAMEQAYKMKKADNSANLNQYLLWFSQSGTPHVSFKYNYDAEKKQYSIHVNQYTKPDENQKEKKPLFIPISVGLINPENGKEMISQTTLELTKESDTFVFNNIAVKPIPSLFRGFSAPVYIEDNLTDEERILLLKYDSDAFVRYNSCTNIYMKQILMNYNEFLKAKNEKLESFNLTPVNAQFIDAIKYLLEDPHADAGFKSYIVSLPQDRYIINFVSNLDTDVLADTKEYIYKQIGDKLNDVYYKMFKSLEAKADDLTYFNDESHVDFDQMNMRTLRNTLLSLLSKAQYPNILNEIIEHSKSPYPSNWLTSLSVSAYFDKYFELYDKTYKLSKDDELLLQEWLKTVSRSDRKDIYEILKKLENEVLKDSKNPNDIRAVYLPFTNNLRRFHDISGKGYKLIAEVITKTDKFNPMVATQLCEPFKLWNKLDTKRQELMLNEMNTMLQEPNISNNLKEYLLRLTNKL

[6] = viability of PTEN-deleted HCT116 cells – cell-based, HCT116 PTEN knockout, dose response (AID 1047); assay type: functional;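 note: HCT116 colon tumor cells with PTEN knocked out; cells exposed to compound for 60 hours before readout; potency for loss of cell viability measured by luminescence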
[7] = viability of HCT116 lacking mutant beta-catenin – cell-based, human colon tumor, dose response (AID 1045); assay type: functional;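 note: HCT116 colon tumor cells with beta catenin knocked out; cells exposed to compound for 60 hours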
[8] = reduction of Shn3 3'UTR-driven luciferase in osteoblasts – cell-based, Clone20 osteoblasts, firefly luciferase, cherry-picked, dose response (AID 624132); assay type: functional;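 note: firefly luciferase luminescence from reporter carrying the Shn3 3'UTR in osteoblasts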
Nonstructural protein 1 = Nonstructural protein 1 (Influenza A virus, UniProt Q194T2); assay type: functional, Influenza A virus (A/California/07/2009(H1N1))
Chain of Nonstructural protein 1 (Q194T2 whole entry): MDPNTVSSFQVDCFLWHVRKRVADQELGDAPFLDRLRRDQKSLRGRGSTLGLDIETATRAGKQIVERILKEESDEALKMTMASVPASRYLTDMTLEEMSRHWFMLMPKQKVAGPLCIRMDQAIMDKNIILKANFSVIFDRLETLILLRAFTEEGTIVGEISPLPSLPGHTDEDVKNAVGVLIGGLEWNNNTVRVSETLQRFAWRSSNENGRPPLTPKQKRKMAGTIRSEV

INS1 = experiment: INS-1E survival protection against cytokine death – cell-based, luminescence, retest, dose response (AID 449756); assay type: functional; details: Rattus norvegicus;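 note: cell death triggered by IL-1 beta plus TNF-alpha plus IFN-gamma mixture; protective hits raise ATP signal compared with cytokine alone wells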
[9] = target: T3, Rac GTPase-activating protein 1 (Homo sapiens, UniProt Q9H0H5); experiment: blockers of MgcRacGAP-driven Rac1 GTP hydrolysis – biochemical, ADP Hunter fluorescence, primary and confirmatory, confirmation (AID 624330); assay type: functional
T3 sequence (Q9H0H5 whole entry): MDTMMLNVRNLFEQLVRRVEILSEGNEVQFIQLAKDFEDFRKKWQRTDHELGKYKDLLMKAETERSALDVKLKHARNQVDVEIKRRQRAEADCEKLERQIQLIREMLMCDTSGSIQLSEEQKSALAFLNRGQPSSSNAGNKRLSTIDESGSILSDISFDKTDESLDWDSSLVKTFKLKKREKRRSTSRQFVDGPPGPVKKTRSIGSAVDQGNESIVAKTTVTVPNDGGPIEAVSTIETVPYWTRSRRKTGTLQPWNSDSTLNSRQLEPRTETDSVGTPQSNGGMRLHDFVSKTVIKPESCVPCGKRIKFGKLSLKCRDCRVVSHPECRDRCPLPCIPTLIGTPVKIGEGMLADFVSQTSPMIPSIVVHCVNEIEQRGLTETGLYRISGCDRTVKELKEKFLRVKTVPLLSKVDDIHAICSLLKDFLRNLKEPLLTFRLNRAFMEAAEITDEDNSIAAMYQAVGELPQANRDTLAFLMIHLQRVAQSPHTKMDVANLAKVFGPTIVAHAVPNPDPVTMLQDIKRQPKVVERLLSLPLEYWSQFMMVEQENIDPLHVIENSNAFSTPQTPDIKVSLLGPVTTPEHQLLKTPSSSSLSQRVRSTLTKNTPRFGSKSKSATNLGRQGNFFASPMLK

[10] = target: Induced myeloid leukemia cell differentiation protein Mcl-1 (Homo sapiens, UniProt Q07820); assay type: functional
Chain of Induced myeloid leukemia cell differentiation protein Mcl-1 (Q07820 whole entry): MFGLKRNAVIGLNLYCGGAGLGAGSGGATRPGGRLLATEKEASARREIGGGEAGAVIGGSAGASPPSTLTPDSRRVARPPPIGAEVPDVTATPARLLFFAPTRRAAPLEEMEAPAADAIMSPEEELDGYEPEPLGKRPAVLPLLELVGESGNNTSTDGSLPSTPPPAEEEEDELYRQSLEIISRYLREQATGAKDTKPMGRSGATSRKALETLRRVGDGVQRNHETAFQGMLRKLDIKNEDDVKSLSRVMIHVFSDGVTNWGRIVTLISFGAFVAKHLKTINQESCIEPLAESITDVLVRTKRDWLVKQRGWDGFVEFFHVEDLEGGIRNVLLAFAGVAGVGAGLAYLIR

[11] = Luminescence Cell-Based Dose Retest to Confirm Inhibitors of Cancer Stem Cells. [Related pubchem assays (depositor defined):AID2717, AID2721]; assay type: functional; details: Homo sapiens
Cytochrome P450 1A2 = target: T4, Cytochrome P450 1A2 (Homo sapiens, UniProt P05177);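 note: PubChem cytochrome P450 panel assay, CYP1A2 panel member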
T4 sequence (P05177 whole entry): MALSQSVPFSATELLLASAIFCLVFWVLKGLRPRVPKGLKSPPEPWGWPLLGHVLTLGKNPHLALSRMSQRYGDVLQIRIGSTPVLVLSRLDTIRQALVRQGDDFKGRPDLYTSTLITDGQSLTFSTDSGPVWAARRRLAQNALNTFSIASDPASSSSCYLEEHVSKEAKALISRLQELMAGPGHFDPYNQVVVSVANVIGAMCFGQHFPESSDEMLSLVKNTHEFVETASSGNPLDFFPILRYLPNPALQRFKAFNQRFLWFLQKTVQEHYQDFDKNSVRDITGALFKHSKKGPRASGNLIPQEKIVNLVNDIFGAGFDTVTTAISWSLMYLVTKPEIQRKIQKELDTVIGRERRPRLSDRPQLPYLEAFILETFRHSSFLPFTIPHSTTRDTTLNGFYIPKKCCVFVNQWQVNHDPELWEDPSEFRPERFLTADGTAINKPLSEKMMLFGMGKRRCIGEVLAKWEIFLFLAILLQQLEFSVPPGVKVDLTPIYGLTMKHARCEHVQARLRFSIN

## CC12CC3CC(C)(C1)CC(C(=O)NCc1ccncc1)(C3)C2
[1]
  AC50: 7.75 µM (active)
[2]
  AC50: 4.58 µM (active)
[3]
  AC50: 13.5 µM (active)
[4]
  AC50: 22.4 µM (active)

## C=CCOc1ccccc1CNc1ccc2[nH]c(O)nc2c1
[5]
  CC50: 21.8 µM (active)
Large T antigen
  IC50: 19 µM (active)

## COc1nccnc1NS(=O)(=O)c1ccc(/N=C/c2c(C)nn(-c3ccc(C)c(C)c3)c2O)cc1
Leucine aminopeptidase
  IC50: 19.3 µM (active)

## O=c1[nH]c2ccc(Cl)cc2c(-c2ccccc2)c1CN1CCOCC1
Aminopeptidase N
  IC50: 81.5 µM (active)

## Oc1ccc(-c2nc3ncccn3c2Nc2ccc3c(c2)OCO3)cc1
Large T antigen
  IC50: 15.6 µM (active)

## CCCCc1nc2sc3c(c2c(=O)n1NC(=O)c1ccco1)CC(C)(C)OC3
Aminopeptidase N
  IC50: 42.8 µM (active)

## CC(C)S(=O)(=O)C1=NSC2=NC(=O)/C(=C\c3c[nH]c4ccccc34)C(=N)N21
Aminopeptidase N
  IC50: 37.3 µM (active)

## O=C(NCC1OCCc2ccccc21)c1ccc(NC(=O)c2cccc(Br)c2)cc1 (configuration not stated)
[6]
  EC50: 25.2 µM (active)
[7]
  EC50: 36.9 µM (active)

## CCCCN1CC(COCc2ccccc2)Oc2cccc(Oc3ccc(C)cc3)c2S1(=O)=O (configuration not stated)
[8]
  AC50: 10.7 µM (active)

## CN(C)c1ccc(NC(=O)CCN2CCN(c3ccccn3)CC2)cc1
Large T antigen
  IC50: 6.73 µM (active)

## Cc1ccccc1NC(=S)N/N=C/c1ccc(O)cc1O
Nonstructural protein 1
  IC50: 11.2 µM (active)
INS1
  AC50: 2.54 µM (active)

## CCOc1cc(/C=N/NC(=O)CCc2nnc(O)nc2O)ccc1O
Large T antigen
  IC50: 32.7 µM (active)
[9]
  IC50: 59.5 µM (active)

## Cc1cc(C=C2C(=O)c3ccccc3C2=O)c(C)n1-c1cccc(C(=O)O)c1
Leucine aminopeptidase
  IC50: 18.6 µM (active)

## NC(CC(=O)O)c1ccc(Br)cc1 (configuration not stated)
Aminopeptidase N
  IC50: 69.2 µM (active)

## CCOc1ccc(C2C3=C(O)c4ccccc4C3=Nc3nc(N)nc(O)c32)cc1 (configuration not stated)
[10]
  IC50: > 54 µM (active)

## COc1ccc(C2NCCc3c2[nH]c2ccccc32)cc1CSc1nc2ccccc2s1 (configuration not stated)
[6]
  EC50: 12.1 µM (active)
[7]
  EC50: 10.1 µM (active)
[11]
  AC50: 3.13 µM (active)

## O=C(CSc1ncccc1C(=O)O)NCc1ccc(F)cc1
Leucine aminopeptidase
  IC50: 42.7 µM (active)

## COc1ccc(/C=C/C(O)=C2\C(=O)NC(=O)N(CCC3=CCCCC3)C2=O)cc1
[6]
  EC50: 13.7 µM (active)
[7]
  EC50: 14.4 µM (active)
[11]
  AC50: 2.71 µM (active)

## CC1CCC2(CC1)NC(=O)N(CC(=O)Nc1ccc3c(c1)OCCO3)C2=O (configuration not stated)
Leucine aminopeptidase
  IC50: 13.8 µM (active)

## CC(NC(=O)c1ccco1)C(=O)Nc1nc(-c2ccccn2)cs1 (configuration not stated)
Nonstructural protein 1
  IC50: 9.55 µM (active)

## FC(F)(F)C1=CC(c2ccccc2)=NCCN1
[10]
  IC50: 9.33 µM (not active)

## COc1ccc(C(C(=O)NC2CCCC2)N(C(=O)c2ccoc2C)c2ccc(C)cc2)cc1 (configuration not stated)
[1]
  AC50: 5.46 µM (active)
[2]
  AC50: 3.47 µM (active)
[3]
  AC50: 8.48 µM (active)
[4]
  AC50: 11.7 µM (active)

## CCC(=O)c1ccc(OCC(O)CN(CCc2ccccc2)Cc2ccccc2)cc1 (configuration not stated)
[6]
  EC50: 49.2 µM (active)
[7]
  EC50: 83.6 µM (active)
Cytochrome P450 1A2
  AC50: 20 µM (inconclusive)

## Cc1nnc(SCC(=O)Nc2ccc(N(C)C)cc2)n(N)c1=O
Large T antigen
  IC50: 11.6 µM (active)

## CCc1cc(=O)oc2c(C)c(O)c(CN3CCCCC3)cc12
Aminopeptidase N
  IC50: 39.9 µM (active)

## O=C(Nc1nc2ccccc2[nH]1)c1ccc(Cl)c([N+](=O)[O-])c1
[10]
  IC50: 6.46 µM (active)
